Converted amounts (≈) assume the structure as drawn. Read-outs that look alike come from different tables or passages of the source.
Key:
L-02 = assay: Cytotoxicity experiment (MTT), L-02; type: cell-based; details: Homo sapiens, L02, 48 h, L-02 normal cells, read-out: Inhibition ratio
Description: (§1) (1) Inoculating cells: Experimental cells in the growth of logarithmic phase were collected and suspended. The cell concentration of the suspension was adjusted so that they could be inoculated into the wells of 96-well micro plate at a density between 10^3-10^4 cells per well (200 μl per well). (2) Culturing cells: The cells were cultured at normal conditions for 3 days and then exposed to 50 uM compounds for test. (3) Coloring reaction: At 24 h, 48 h and 72 h after the cells being exposed to the compounds for test, 200 μl culture medium containing 20 μl MTT solution (5 mg/ml) was added into each well, and the well was further incubated at 37° C. for 2 hours to terminate the incubation. After the incubation, the supernatants were removed from the wells. In the event there were suspended cells in the wells, centrifugation should be performed before removal of supernatant from the wells. After the removal, 150 μl DMSO was added to each well and mixed thoroughly by agitation for 10 mins to fully dissolve crystals. (4) Ascertainment of colorimetry: The absorbance value at 490 nm of each well was determined by Enzyme-linked immunosorbent Monitor. The growth curve of the experimental cells was plotted by taking time as x-coordinate and absorbance value as y-coordinate. In addition, an inhibition ratio could be calculated in accordance with the following formula: Inhibition ratio=(absorbance value of control group-absorbance value of administering group)/absorbance value of control group×100%.

E. faecalis = assay: In vitro antibacterial activity (MIC), E. faecalis; type: cell-based; details: Enterococcus faecalis
Description: (§2) The test strain was inoculated into the liquid medium and cultured at 37° C. for 16-18 h. The culture liquid and MH medium were put into two blank wells of a 96-well plate, respectively. Then, the absorptions thereof were measured by a Microplate reader. The difference between the absorption values of the culture liquid and MH medium is the adsorption of the bacteria. The concentration of the culture liquid can be calculated according to the formula of 1OD=50 million CFU/mL. The culture liquid was diluted with the MH bouillon culture medium to 5000 CFU/mL for further use.
(§3) Compounds 12a, 13 and 14 were dissolved in DMSO to 1 mg/mL, and then filtered with a 0.22 μm filter to obtain the compound solutions. And then they were gradually diluted to a desired concentration (10× final concentration) with the liquid medium, so as to obtain a series of dilutions. The final concentration grade of the dilutions of each tested compound consists of 14 concentrations, which includes: 0.03125 μg/mL, […], 0.125 μg/mL, 0.25 μg/mL, […], 1 μg/mL, 2 μg/mL, 4 μg/mL, 8 μg/mL, 16 μg/mL, 32 μg/mL, 64 μg/mL, 128 μg/mL and 256 μg/mL.
(§4) 10 μL of each of the compound dilutions above was added into a well of a 96-well plate. 90 μL of the culture liquid (5000 CFU/mL) was added into each of the wells, respectively, mixed with the dilutions to render the tested compound concentration to the final concentration. The resulted mixture was incubated at 37° C. for 16-18 h, and then the OD630 thereof was measured. A culture liquid free of the tested compounds is used as a blank control, and three parallel tests with the same concentration of each compound were performed. The minimum inhibitory concentration (MIC) of each compound on the standard strain of Staphylococcus Aureus and other test strains was determined. Specifically, among the culture liquid contained in the wells of the micro-plate, the first three lowest concentrations under which growth of the test strains could be observed were chose for further evaluation of the MIC. A culture liquid free of tested compounds was used as a blank control. Each of the culture liquids was homogenized independently, and then was diluted with a sterile saline. Each of the diluted culture liquids was plated onto a MH bouillon plate and incubated at 37° C. for 20 h in incubator. After the incubation, the number of the colonies on each plate was counted. As compared with the blank control group, the lowest concentration of each of the test compound groups, at which 80% reduction in the colony number of the strains was achieved, was recorded as the MIC.

S. pneumoniae = assay: In vitro antibacterial activity (MIC), S. pneumoniae; type: cell-based; details: Streptococcus pneumoniae
Description: as §2, §3, §4

S. aureus = assay: In vitro antibacterial activity (MIC), S. aureus; type: cell-based, Staphylococcus Aureus; details: Staphylococcus aureus
Description: Strains: strain ATCC25923 is available from the American Type Culture Collection, and is used as a standard strain of Staphylococcus Aureus;
Liquid medium: MH bouillon culture medium, a product of BD Company, United States of American;
Tested Compounds: compounds 12a, 13 and 14 prepared according to the methods above, and Linezolid purchased from Pfizer.
as §2, §3, §4

S. agalactiae = assay: In vitro antibacterial activity (MIC), S. agalactiae; type: cell-based; details: Streptococcus agalactiae
Description: as §2, §3, §4

HEK-293 = assay: Cytotoxicity experiment (MTT), HEK-293; type: cell-based; details: Homo sapiens, HEK293, 48 h, HEK-293 normal cells, read-out: Inhibition ratio
Description: as §1

[1] = E. faecalis (7 strains), read-out: MIC
[2] = S. pneumoniae (10 strains), read-out: MIC
[3] = S. aureus (12 strains), read-out: MIC
[4] = S. agalactiae (5 strains), read-out: MIC

Row | Compound | cytotoxicity at 50 µM (L-02) [%] | MIC (E. faecalis; [1]) [µg/mL] | MIC (S. pneumoniae; [2]) [µg/mL] | MIC (S. aureus; [3]) [µg/mL] | MIC (S. agalactiae; [4]) [µg/mL] | cytotoxicity at 50 µM (HEK-293) [%] | melting point [°C] | MIC (E. faecalis) [µg/mL] | MIC (S. pneumoniae) [µg/mL] | MIC (S. aureus) [µg/mL] | MIC (S. agalactiae) [µg/mL]
1 | CC(=O)NC[C@H]1CN(c2ccc(-n3ccc(-c4ccccn4)n3)c(F)c2)C(=O)O1 [Compound 12a, (S)-N-((3-(3-fluoro-4-(3-(pyridin-2-yl)-1H-pyrazol-1-yl)phenyl)-2-oxooxazolidin-5-yl)methyl)acetamide] | 20 | 2 to 16 (≈ 5.06 to 40.5 µM) | 1 to 16 (≈ 2.53 to 40.5 µM) | 2 to 16 (≈ 5.06 to 40.5 µM) | 2 to 16 (≈ 5.06 to 40.5 µM) | 5.5 |  |  |  |  | 
2 | CC(=O)NC[C@H]1CN(c2ccc(-n3cc(-c4ccncc4)cn3)c(F)c2)C(=O)O1 [Compound 13a, (S)-N-((3-(3-fluoro-4-(4-(pyridin-4-yl)-1H-pyrazol-1-yl)phenyl)-2-oxooxazolidin-5-yl)methyl)acetamide] | 4 | 0.25 to 16 (≈ 0.632 to 40.5 µM) | 0.125 to 16 (≈ 0.316 to 40.5 µM) | 0.5 to 16 (≈ 1.26 to 40.5 µM) | 0.25 to 16 (≈ 0.632 to 40.5 µM) | 11 |  |  |  |  | 
3 | CC(=O)NC[C@H]1CN(c2ccc(-n3cc(-c4ccc(C)cc4)cn3)c(F)c2)C(=O)O1 [Compound 13b, (S)-N-((3-(3-fluoro-4-(4-(p-tolyl)-1H-pyrazol-1-yl)phenyl)-2-oxooxazolidin-5-yl)methyl)acetamide] | 5.58 | 0.5 to 8 (≈ 1.22 to 19.6 µM) | 0.5 to 8 (≈ 1.22 to 19.6 µM) | 1 to 8 (≈ 2.45 to 19.6 µM) | 0.25 to 8 (≈ 0.612 to 19.6 µM) | 12 | 221.5 to 222.8 |  |  |  | 
4 | COc1ccc(-c2cnn(-c3ccc(N4C[C@H](CNC(C)=O)OC4=O)cc3F)c2)cc1 [Compound 13c, (S)-N-((3-(3-fluoro-4-(4-(4-methoxyphenyl)-1H-pyrazol-1-yl)phenyl)-2-oxooxazolidin-5-yl)methyl) acetamide] | 10.4 | 0.25 to 8 (≈ 0.589 to 18.8 µM) | 0.5 to 8 (≈ 1.18 to 18.8 µM) | 1 to 8 (≈ 2.36 to 18.8 µM) | 0.5 to 8 (≈ 1.18 to 18.8 µM) | 32 | 226.1 to 227.8 |  |  |  | 
5 | CC(=O)NC[C@H]1CN(c2ccc(-n3cc(-c4ccc(Cl)cc4)cn3)c(F)c2)C(=O)O1 [Compound 13d, (S)-N-((3-(3-fluoro-4-(4-(4-chlorophenyl)-1H-pyrazol-1-yl)phenyl)-2-oxooxazolidin-5-yl)methyl)acetamide] | 39.3 |  |  |  |  | 21 | 237.5 to 238.2 | 0.5 to 8 (≈ 1.17 to 18.7 µM) | 0.25 to 4 (≈ 0.583 to 9.33 µM) | 1 to 4 (≈ 2.33 to 9.33 µM) | 0.5 to 8 (≈ 1.17 to 18.7 µM)
6 | CC(=O)NC[C@H]1CN(c2ccc(-n3cc(-c4ccc(C(=O)O)cn4)cn3)c(F)c2)C(=O)O1 [Compound 13e, (S)-N-((3-(3-fluoro-4-(4-(5-carboxyl-pyridin-2-yl)-1H-pyrazol-1-yl)phenyl)-2-oxooxazolidin-5-yl)methyl) acetamide] | 38 | 1 to 8 (≈ 2.28 to 18.2 µM) | 0.5 to 8 (≈ 1.14 to 18.2 µM) | 1 to 8 (≈ 2.28 to 18.2 µM) | 0.5 to 4 (≈ 1.14 to 9.1 µM) | 36.3 | 279.6 to 280.2 |  |  |  | 
7 | CC(=O)NC[C@H]1CN(c2ccc(-n3nccc3-c3cccnc3)c(F)c2)C(=O)O1 [Compound 14a, (S)-N-((3-(3-fluoro-4-(5-(pyridin-3-yl)-1H-pyrazol-1-yl)phenyl)-2-oxooxazolidin-5-yl)methyl)acetamide] | 7.51 | 2 to 16 (≈ 5.06 to 40.5 µM) | 1 to 16 (≈ 2.53 to 40.5 µM) | 2 to 16 (≈ 5.06 to 40.5 µM) | 2 to 16 (≈ 5.06 to 40.5 µM) | 14 |  |  |  |  | 

— patent US8946436B2, “Oxazolidinone compounds and their uses in preparation of antibiotics” (Sichuan Gooddoctor Pharmaceutical Group Co., Ltd., priority 2011, dated 2015)
